Experimental findings from PubChem BioAssay (NCI) are described below.

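Where inhibition never reached the appropriate level, the endpoint shown equals the highest concentration tested. Otherwise, values were interpolated linearly from a five-concentration, 48-hour dose response in 96-well plates. The concentration for 50% growth inhibition is given as GI50. TGI denotes the concentration required for complete inhibition of growth.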

Holding throughout (assay): DTP human tumour cell line panel, 48 h
Experiment [1] relates to SW-620 colon.
The test system of experiment [2] is HT29 colon.
Experiment [3] concerns HCC-2998 colon.
Experiment [4] concerns UACC-257 melanoma.
Experiment [5] deals with HCT-116 colon.
Experiment [6] concerns SF-268 CNS.
Experiment [7] deals with MDA-MB-435.
Experiment [8] has as its system TK-10 renal.
Experiment [9] relates to BT-549 breast.
The test system of experiment [10] is HOP-92 NSCLC.

Turning to `O=C(CN1CCCCC1)Nc1ccc2c(c1)C1Oc3ccccc3CC1CO2` (stereo not given), the TGI in experiment [1] is 39.7 µM; in [2], 29.1 µM; in experiment [3], 34.4 µM; in experiment [4] it was 36 µM; in experiment [5] it was 35.2 µM; in [6] it was above 100 µM. Also, the TGI was found to be 38.4 µM in experiment [7], 50.9 µM in experiment [8], 44.6 µM in [9] and 54.7 µM in experiment [10].
Regarding `CCOC(=O)[C@@]1(C)CC(O)C(=O)N1C` (stereo not given in full), the concentration for total growth inhibition (TGI) in experiment [1], in experiment [2], in experiment [3], in experiment [4], in [5] and in [6] was above 100 µM throughout. For the same compound, the TGI in experiment [7], in experiment [8], in [9] and in experiment [10] was above 100 µM each time.
For `Cc1cc(OCCOCCC(F)(F)P(=O)(O)O)ccc1CCc1cnc2c(N)nc3cc(CCC(=O)O)ccc3c2c1`, the GI50 in experiment [1], in experiment [2], in experiment [3], in [4], in experiment [5] and in experiment [6] was above 100 µM each time. For the same compound, the GI50 is above 100 µM in [7], above 100 µM in experiment [8], above 100 µM in [9] and 6.61 µM in experiment [10]. For the same compound, the TGI in experiment [1], in [2], in [3], in [4], in [5] and in experiment [6] was above 100 µM throughout. Moreover, the TGI in experiment [7], in [8], in [9] and in experiment [10] was above 100 µM each time.
As to `Nc1ccc2ccc(N3CCNCC3)nc2n1`, the TGI in [1], in experiment [2], in [3], in [4], in experiment [5] and in experiment [6] was above 100 µM throughout. The TGI in experiment [7], in experiment [8], in [9] and in experiment [10] was above 100 µM throughout.
Take `CCCCCCCCP(=O)(O)OP(=O)(O)OCC1OC(n2ccc(N)nc2=O)C(O)C1O` (stereo not given): the TGI in experiment [1], in experiment [2], in experiment [3], in [4], in experiment [5] and in [6] was above 100 µM each time. The TGI in [7], in experiment [8], in experiment [9] and in experiment [10] was above 100 µM in each case.
`CN(CCCNC(=O)c1nn(C)c2c1Cc1ccccc1-2)CCCNC(=O)c1nn(C)c2c1Cc1ccccc1-2`: the TGI in experiment [1] was 27.9 µM; in [2] it was 31.6 µM; in experiment [3] it was 23.5 µM; in [4], 30.1 µM; in experiment [5] it was 30.2 µM; in experiment [6] it was 37.9 µM. The TGI in experiment [7] came to 27 µM; in [8] it was 36.2 µM; in experiment [9], 47.2 µM; in experiment [10], 35 µM.
For `COC(=O)C(Cc1c[nH]c2ccccc12)NP(=O)(O)OCC1OC(n2cc(Br)c(=O)[nH]c2=O)CC1O` (stereo not given), the concentration for total growth inhibition (TGI) in [1], in experiment [2], in [3], in experiment [4], in experiment [5] and in experiment [6] was above 100 µM throughout. The TGI in experiment [7], in experiment [8], in [9] and in experiment [10] was above 100 µM throughout.
For the compound `COC(=O)[C@]1(c2cc3ccccc3[nH]2)CC2CN(C(=O)OCc3ccccc3)C1CC2=O` (stereo not given in full), the TGI in [1] is above 100 µM; in [2], 31.7 µM; in experiment [3] it was above 100 µM; in experiment [4], above 100 µM; in experiment [5] it was above 100 µM; in experiment [6], above 100 µM. The TGI is above 100 µM in experiment [7], above 100 µM in experiment [8], 95.5 µM in [9] and 87.8 µM in experiment [10].
As for `CN(C)CCOc1ccc(-c2c(Oc3ccccc3)c(=O)oc3ccccc23)cc1`, the TGI was 23.8 µM in experiment [1]; 25.4 µM in experiment [2]; 20.8 µM in experiment [3]; 19.5 µM in experiment [4]; 15.5 µM in experiment [5]; 25.4 µM in [6]. In addition, the TGI in [7] is 21.2 µM; in [8] it was 26.4 µM; in [9] it was 26.6 µM; in experiment [10] it was 32.7 µM.
Turning to `CCCCc1ccc(Nc2nc(Cl)c3c(ncn3C3CC(Oc4ccc(C)cc4)C(COc4ccc(C)cc4)O3)n2)cc1` (stereo not given), the TGI in experiment [1], in experiment [2], in experiment [3], in [4], in experiment [5] and in [6] was above 100 µM in each case. Further, the TGI in [7], in experiment [8], in experiment [9] and in experiment [10] was above 100 µM each time.
For the compound `C=CC(=O)N1C/C(=C\c2ccc([N+](=O)[O-])cc2)C(=O)/C(=C/c2ccc([N+](=O)[O-])cc2)C1`, the TGI in experiment [1] was 1.96 µM; in [2] it was below 0.038 µM; in [3], 1.21 µM; in experiment [4] it was 3.25 µM; in experiment [5] it was 0.115 µM; in [6] it was 0.338 µM. Moreover, the TGI in [7] came to 1.36 µM; in experiment [8], 2.09 µM; in experiment [9] it was 0.567 µM; in experiment [10], 2.98 µM.

In general, TGI refers to the concentration at which net growth stops. High values mean lower sensitivity of the cells, low ones greater sensitivity of the cells. As a reminder, the GI50 is the concentration at which growth is held to half of that of the control.
